For `COc1cc2c(cc1OC)C(CO)Cc1c-2cnc2cc3c(cc12)OCO3` (centres unmarked) [Compound 208], which melting point is on record?
Its melting point is 231 to 233 °C.

With `COc1cc2c(cc1OC)C(CC#N)Cc1c-2cnc2cc3c(cc12)OCO3` (centres unmarked) [Compound 209] as the compound, how does the melting point read?
The melting point was 212 to 214 °C.
